# Measured values reported in ChEMBL document CHEMBL3885881, “DrugMatrix”.
# Organism: Rattus norvegicus
# Experiment: DrugMatrix - Regimen: Daily Repeat
# Format: toxicity, organism-based, Sprague-Dawley
# Set-up: regimen Daily Repeat, gender Male, age 6-8 weeks
# Conditions: in vivo, po, route oral GAVAGE, […]; for ABSOLUTE BASOPHIL / ABSOLUTE EOSINOPHIL / ABSOLUTE LYMPHOCYTE / ABSOLUTE MONOCYTE / ABSOLUTE SEGMENTED NEUTROPHIL / BASOPHIL / EOSINOPHIL / ERYTHROCYTE COUNT / HEMATOCRIT / HEMOGLOBIN / LEUKOCYTE COUNT / LYMPHOCYTE / MEAN CORPUSCULAR HEMOGLOBIN / MEAN CORPUSCULAR HEMOGLOBIN CONCENTRATION / MEAN CORPUSCULAR VOLUME / MONOCYTE / NEUTROPHIL / NUCLEATED RED BLOOD CELLS / PLATELET COUNT: tissue Blood; for ALANINE AMINOTRANSFERASE / ALBUMIN / ALKALINE PHOSPHATASE / ASPARTATE AMINOTRANSFERASE / BLOOD UREA NITROGEN / CARBON DIOXIDE / CHLORIDE / CHOLESTEROL / CREATINE PHOSPHOKINASE / CREATININE / GLUCOSE / LACTATE DEHYDROGENASE / LIPASE / PHOSPHORUS / POTASSIUM / SODIUM / TOTAL BILIRUBIN / TOTAL PROTEIN: tissue Plasma
# [1] = 0 mg/kg, 72 h, dose level Control, time 3 day
# [2] = 0 mg/kg, 120 h, dose level Control, time 5 day
# [3] = 40 mg/kg, 72 h, dose level Low, time 3 day
compound,measurement,setting,value
CN(C)CCCC1(c2ccc(F)cc2)OCc2cc(C#N)ccc21 (stereo not given) [CITALOPRAM],ABSOLUTE BASOPHIL,[1],0 CELLS/uL
same,ABSOLUTE EOSINOPHIL,[1],41.83 CELLS/uL
same,ABSOLUTE LYMPHOCYTE,[1],8545.5 CELLS/uL
same,ABSOLUTE MONOCYTE,[1],240 CELLS/uL
same,ABSOLUTE SEGMENTED NEUTROPHIL,[1],906 CELLS/uL
same,BASOPHIL,[1],0%
same,EOSINOPHIL,[1],0.33%
same,ERYTHROCYTE COUNT,[1],5.6 x10E6/uL
same,HEMATOCRIT,[1],35.4%
same,HEMOGLOBIN,[1],13.42 G/DL
same,LEUKOCYTE COUNT,[1],9.73 x10E3/uL
same,LYMPHOCYTE,[1],87.83%
same,MEAN CORPUSCULAR HEMOGLOBIN,[1],23.98 pg
same,MEAN CORPUSCULAR HEMOGLOBIN CONCENTRATION,[1],37.92 G/DL
same,MEAN CORPUSCULAR VOLUME,[1],63.3 fL
same,MONOCYTE,[1],2.5%
same,NEUTROPHIL,[1],9.33%
same,NUCLEATED RED BLOOD CELLS,[1],0 /100WBC
same,PLATELET COUNT,[1],1032 x10E3/uL
same,ALANINE AMINOTRANSFERASE,[1],72.83 u/L
same,ALBUMIN,[1],4 G/DL
same,ALKALINE PHOSPHATASE,[1],322.83 u/L
same,ASPARTATE AMINOTRANSFERASE,[1],102.67 u/L
same,BLOOD UREA NITROGEN,[1],12 mg/dL
same,CARBON DIOXIDE,[1],34.33 mmol/L
same,CHLORIDE,[1],97.67 MEQ/L
same,CHOLESTEROL,[1],82.5 mg/dL
same,CREATINE PHOSPHOKINASE,[1],410.33 u/L
same,CREATININE,[1],0.18 mg/dL
same,GLUCOSE,[1],164.5 mg/dL
same,LACTATE DEHYDROGENASE,[1],119.5 u/L
same,LIPASE,[1],11.83 u/L
same,PHOSPHORUS,[1],9.52 mg/dL
same,POTASSIUM,[1],5.56 MEQ/L
same,SODIUM,[1],142.48 MEQ/L
same,TOTAL BILIRUBIN,[1],0.18 mg/dL
same,TOTAL PROTEIN,[1],5.77 G/DL
same,ABSOLUTE BASOPHIL,[2],0 CELLS/uL
same,ABSOLUTE EOSINOPHIL,[2],0 CELLS/uL
same,ABSOLUTE LYMPHOCYTE,[2],9065 CELLS/uL
same,ABSOLUTE MONOCYTE,[2],341.33 CELLS/uL
same,ABSOLUTE SEGMENTED NEUTROPHIL,[2],527 CELLS/uL
same,BASOPHIL,[2],0%
same,EOSINOPHIL,[2],0%
same,ERYTHROCYTE COUNT,[2],5.25 x10E6/uL
same,HEMATOCRIT,[2],34.08%
same,HEMOGLOBIN,[2],13.5 G/DL
same,LEUKOCYTE COUNT,[2],9.93 x10E3/uL
same,LYMPHOCYTE,[2],91.17%
same,MEAN CORPUSCULAR HEMOGLOBIN,[2],25.7 pg
same,MEAN CORPUSCULAR HEMOGLOBIN CONCENTRATION,[2],39.62 G/DL
same,MEAN CORPUSCULAR VOLUME,[2],64.93 fL
same,MONOCYTE,[2],3.33%
same,NEUTROPHIL,[2],5.5%
same,NUCLEATED RED BLOOD CELLS,[2],0 /100WBC
same,PLATELET COUNT,[2],1077.5 x10E3/uL
same,ALANINE AMINOTRANSFERASE,[2],57.83 u/L
same,ALBUMIN,[2],4.07 G/DL
same,ALKALINE PHOSPHATASE,[2],319.17 u/L
same,ASPARTATE AMINOTRANSFERASE,[2],83.33 u/L
same,BLOOD UREA NITROGEN,[2],13.67 mg/dL
same,CARBON DIOXIDE,[2],30.83 mmol/L
same,CHLORIDE,[2],98.33 MEQ/L
same,CHOLESTEROL,[2],64.83 mg/dL
same,CREATINE PHOSPHOKINASE,[2],263.67 u/L
same,CREATININE,[2],0.2 mg/dL
same,GLUCOSE,[2],182.83 mg/dL
same,LACTATE DEHYDROGENASE,[2],124 u/L
same,LIPASE,[2],10.5 u/L
same,PHOSPHORUS,[2],10 mg/dL
same,POTASSIUM,[2],5.78 MEQ/L
same,SODIUM,[2],142.48 MEQ/L
same,TOTAL BILIRUBIN,[2],0.2 mg/dL
same,TOTAL PROTEIN,[2],6 G/DL
same,ABSOLUTE BASOPHIL,[3],0 CELLS/uL
same,ABSOLUTE EOSINOPHIL,[3],46.33 CELLS/uL
same,ABSOLUTE LYMPHOCYTE,[3],12847 CELLS/uL
same,ABSOLUTE MONOCYTE,[3],96.67 CELLS/uL
same,ABSOLUTE SEGMENTED NEUTROPHIL,[3],810 CELLS/uL
same,BASOPHIL,[3],0%
same,EOSINOPHIL,[3],0.33%
same,ERYTHROCYTE COUNT,[3],5.4 x10E6/uL
same,HEMATOCRIT,[3],34.8%
same,HEMOGLOBIN,[3],13.67 G/DL
same,LEUKOCYTE COUNT,[3],13.8 x10E3/uL
same,LYMPHOCYTE,[3],93%
same,MEAN CORPUSCULAR HEMOGLOBIN,[3],25.3 pg
same,MEAN CORPUSCULAR HEMOGLOBIN CONCENTRATION,[3],39.27 G/DL
same,MEAN CORPUSCULAR VOLUME,[3],64.37 fL
same,MONOCYTE,[3],0.67%
same,NEUTROPHIL,[3],6%
same,NUCLEATED RED BLOOD CELLS,[3],0 /100WBC
same,PLATELET COUNT,[3],979.33 x10E3/uL
same,ALANINE AMINOTRANSFERASE,[3],61.33 u/L
same,ALBUMIN,[3],3.93 G/DL
same,ALKALINE PHOSPHATASE,[3],390.33 u/L
same,ASPARTATE AMINOTRANSFERASE,[3],85.33 u/L
same,BLOOD UREA NITROGEN,[3],9.33 mg/dL
same,CARBON DIOXIDE,[3],28 mmol/L
same,CHLORIDE,[3],101 MEQ/L
same,CHOLESTEROL,[3],69.67 mg/dL
same,CREATINE PHOSPHOKINASE,[3],135.67 u/L
same,CREATININE,[3],0.31 mg/dL
same,GLUCOSE,[3],158.67 mg/dL
same,LACTATE DEHYDROGENASE,[3],101.67 u/L
same,LIPASE,[3],14.33 u/L
same,PHOSPHORUS,[3],10.5 mg/dL
same,POTASSIUM,[3],6.13 MEQ/L
same,SODIUM,[3],144.7 MEQ/L
same,TOTAL BILIRUBIN,[3],0.17 mg/dL
